Laboratory results: PubChem BioAssay (NCI)
Several values for one entry are separate records, joined by “and”; a condition that tells them apart may be missing. Equal entries are not always repeated.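 Step 1: Grow cells in 96-well plates. Step 2: Expose to compound for 48 hours at 5 concentrations. Step 3: Interpolate endpoints linearly; if unreached, use highest concentration. GI50 marks 50% less growth. TGI is the concentration that stops growth completely.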

Experiments:
Test in all cases: NCI tumour cell line growth inhibition, 48 h
[1] = test system: OVCAR-4 ovarian
[2] = test system: SK-MEL-2 melanoma
[3] = test system: OVCAR-3 ovarian
[4] = test system: HOP-92 NSCLC
[5] = test system: CAKI-1 renal
[6] = test system: SNB-19 CNS
[7] = test system: SK-MEL-28 melanoma
[8] = test system: NCI/ADR-RES ovarian
[9] = test system: RXF 393 renal
[10] = test system: SF-295 CNS

SMILES | TGI [1] [µM] | TGI [2] [µM] | TGI [3] [µM] | TGI [4] [µM] | TGI [5] [µM] | TGI [6] [µM] | TGI [7] | TGI [8] [µM] | TGI [9] [µM] | TGI [10] | GI50 [1] [µM] | GI50 [3] [µM] | GI50 [8] [µM] | GI50 [2] [µM] | GI50 [4] [µM] | GI50 [5] [µM] | GI50 [6] [µM] | GI50 [7] [µM] | GI50 [9] [µM] | GI50 [10] [µM]
COc1ccc(N2N=NN(C(C)C)/C2=C(/Cl)c2nnnn2-c2ccc(OC)cc2)cc1 | 11.6 | 29.6 | 24.5 | 6.19 | 3.16 | 31.6 | 29.7 µM | 61.2 | 27.4 | 30.4 µM | – | – | – | – | – | – | – | – | – | –
COC1=CC(=O)c2nc3ccccc3c3ccnc1c23 | 18.8 | 21.8 | > 21.4 | 48 | > 53.8 | > 64.9 | 41.5 µM | 51.3 | 16.2 | 19.7 µM | – | – | – | – | – | – | – | – | – | –
Cc1c2oc3c(C)cc(F)c(C(=O)NC4C(=O)NC(C(C)C)C(=O)N5CCCC5C(=O)N(C)CC(=O)N(C)C(C(C)C)C(=O)OC4C)c3nc-2c(C(=O)NC2C(=O)NC(C(C)C)C(=O)N3CCCC3C(=O)N(C)CC(=O)N(C)C(C(C)C)C(=O)OC2C)c(N)c1=O (configuration not stated) | > 100 | 0.663 | – | 0.887 | 3.73 | 21.1 | 1.31 µM and 0.988 µM | 91 | 0.391 | 2.32 µM and 4.16 µM | 0.559 | 0.171 | 5.62 | – | – | – | – | – | – | –
CC(=O)OCC1OC(SC2=NC(=O)/C(=C/c3ccccc3)S2)C(OC(C)=O)C(OC(C)=O)C1OC(C)=O (configuration not stated) | > 100 | > 100 | 44.4 | 44.2 | 12 | > 100 | > 100 µM | 84 | 67.6 | > 100 µM | – | – | – | – | – | – | – | – | – | –
COc1ccc(N2C(=O)C3c4[nH]c5ccccc5c4C4c5ccccc5CC4C3C2=O)cc1 (configuration not stated) | > 100 | > 100 | > 100 | > 100 | > 100 | > 100 | > 100 µM | > 100 | > 100 | > 100 µM | – | – | – | – | – | – | – | – | – | –
N#Cc1c(N2CCCC2)nsc1Nc1ccc(F)cc1 | > 100 | > 100 | > 100 | > 100 | > 100 | > 100 | > 100 µM | > 100 | > 100 | > 100 µM | – | – | – | – | – | – | – | – | – | –
COc1cc2[nH]c(=O)c3cc(C)cc4c(Cl)nc(c1OC)c2c43 | > 100 | > 100 | > 100 | > 100 | > 100 | > 100 | > 100 µM | > 100 | 58.1 | > 100 µM | – | – | – | – | – | – | – | – | – | –
CCOC(=O)C(NC(=O)CC)(Nc1ccc(S(=O)(=O)Nc2ccc(OC)nn2)cc1)C(F)(F)F (configuration not stated) | > 100 | > 100 | > 100 | > 100 | > 100 | > 100 | > 100 µM | > 100 | > 100 | > 100 µM | – | – | – | – | – | – | – | – | – | –
CCN(CC)c1ccc2cc(C(N)=O)c(=Nc3ccc(F)cc3)oc2c1 | > 100 | > 100 | > 100 | > 100 | > 100 | > 100 | > 100 µM | > 100 | 92 | > 100 µM | – | – | – | – | – | – | – | – | – | –
COc1ccc(Cn2c3ccc([N+](=O)[O-])cc3c(=O)n2Cc2ccccn2)cc1 | > 100 | > 100 | > 100 | > 100 | > 100 | > 100 | > 100 µM | > 100 | > 100 | > 100 µM | – | – | – | – | – | – | – | – | – | –
Cc1cc2oc3c(ccc(=O)n3C)c(=O)c2c(C)c1Cl | > 100 | > 100 | > 100 | > 100 | > 100 | > 100 | 73.1 µM | > 100 | 95.6 | > 100 µM | – | – | – | – | – | – | – | – | – | –
O=c1[nH]c(=O)n(COCc2ccccc2)c2ccccc12 | > 100 | > 100 | > 100 | > 100 | > 100 | > 100 | > 100 µM | 92.7 | 94.5 | > 100 µM | – | – | – | – | – | – | – | – | – | –
COC12C=CC(CC1)C(C)(C)C2OS(C)(=O)=O (configuration not stated) | > 100 | > 100 | > 100 | > 100 | > 100 | > 100 | > 100 µM | > 100 | > 100 | > 100 µM | – | – | – | – | – | – | – | – | – | –
Nc1ccccc1OCCCOc1ccccc1N | > 100 | > 100 | > 100 | > 100 | > 100 | > 100 | > 100 µM | > 100 | > 100 | > 100 µM | – | – | – | – | – | – | – | – | – | –
O=C1C=C(O)c2c(O)ccc(O)c2C1=O | > 100 | > 100 | > 100 | > 100 | > 100 | > 100 | > 100 µM | > 100 | > 100 | > 100 µM | – | – | – | – | – | – | – | – | – | –
O=c1c2cc(I)ccc2nc(SCc2nnco2)n1Cc1ccccc1 | > 100 | > 100 | > 100 | > 100 | > 100 | > 100 | > 100 µM | > 100 | > 100 | > 100 µM | – | – | – | – | – | – | – | – | – | –
CS(=O)(=O)OCC1CCCCCCCCCCC12SCCCS2 (configuration not stated) | > 100 | > 100 | > 100 | > 100 | > 100 | > 100 | > 100 µM | > 100 | > 100 | > 100 µM | – | – | – | – | – | – | – | – | – | –
O=NN1C(c2ccccc2)CCCC1c1ccccc1 (configuration not stated) | > 100 | > 100 | > 100 | > 96.1 | > 100 | > 100 | > 100 µM | > 100 | > 100 | > 100 µM | – | – | – | – | – | – | – | – | – | –
CC(=O)O[C@H]1C[C@](C)(O)[C@@]23CC([C@@H](OC(=O)C(C)(C)O)[C@@H](OC(C)=O)C2(COC(=O)c2ccccc2)[C@H]1OC(C)=O)C(C)(C)O3 (some centres not stated) | > 100 | > 100 | > 100 | > 100 | > 100 | > 100 | > 100 µM | > 100 | > 100 | > 100 µM | – | – | – | – | – | – | – | – | – | –
CC(=O)c1[nH]c(Nc2ccc(C)cc2)c(C(=S)Nc2ccccc2)c1N | 54.9 | 31.9 | 35.5 | 35.9 | 35.6 | 42.9 | 45.3 µM | 89.4 | 27.9 | 39.7 µM | – | – | – | – | – | – | – | – | – | –
C[C@]12CC[C@H](O)CC1=CC[C@@H]1[C@@H]2CC[C@]2(C)C(=O)/C(=C/c3ccc([N+](=O)[O-])cc3)C[C@@H]12 | 32.3 | 36.5 | 33.8 | 22.6 | > 100 | 27.8 | 74.7 µM | 61.1 | 25 | 20.6 µM | – | – | – | – | – | – | – | – | – | –
CC1=CC(=O)/C(=C/n2c(=S)[nH]c3cc(C)ccc32)C(=O)O1 | > 100 | > 100 | > 100 | > 100 | > 100 | > 100 | > 100 µM | > 100 | > 100 | > 100 µM | – | – | – | – | – | – | – | – | – | –
CN(C)CC1CCCc2ccccc2C1=O (configuration not stated) | 2.01 | 4 | 3.57 | 34.8 | 6.25 | 26.4 | 13 µM | 17.5 | 11.7 | 32.5 µM | – | – | – | – | – | – | – | – | – | –
COc1cc(/C(=C2/O[C@@H]([C@H]3COC(C)(C)O3)[C@H]3OC(C)(C)O[C@@H]23)c2ccc3c(c2)OCO3)cc(OC)c1OC | > 25 | > 25 | > 25 | > 25 | > 25 | > 25 | > 25 µM | > 25 | > 25 | > 25 µM | 8.81 | > 25 | > 25 | > 25 | > 25 | > 25 | > 25 | 16.1 | 6.05 | > 25
O=C1c2cccnc2-c2nccc3c2c1nc1ccc(Br)cc13 | 0.324 | 0.306 | 0.0586 | 0.794 | 0.156 | 0.295 | 0.169 µM | 0.176 | 0.0691 | 0.114 µM | – | – | – | – | – | – | – | – | – | –
COc1cc([C@@H]2c3cc4c(cc3[C@@H](c3c(O)cc(O)c5c3O[C@H](c3ccc(O)c(O)c3)[C@H](OC(=O)c3cc(O)c(O)c(O)c3)C5)[C@H]3COC(=O)[C@H]23)OCO4)cc(OC)c1O | > 100 | > 100 | > 100 | > 100 | > 100 | > 100 | > 100 µM | > 100 | > 100 | > 100 µM | – | – | – | – | – | – | – | – | – | –
N#Cc1ccc2[nH]c3c(c2c1)CC(=O)Nc1ccccc1-3 | > 100 | > 100 | > 100 | > 100 | > 100 | > 100 | > 100 µM | > 100 | > 100 | > 100 µM | – | – | – | – | – | – | – | – | – | –
CC(C)=CCC[C@@H](C)C1=CC(=O)C(C)=C(O)C1=O | 14.2 | 26.3 | 15.8 | 7.18 | 10.5 | 29.4 | 31 µM | 11.3 | 5.92 | 27.3 µM | – | – | – | – | – | – | – | – | – | –
O=C1O[C@H]2C3C4CCC(C4[C@@H]2I)[C@H]13 (some centres not stated) | > 100 | > 100 | > 100 | > 100 | > 100 | > 100 | > 100 µM | > 100 | > 100 | > 100 µM | – | – | – | – | – | – | – | – | – | –
